{
  "source": "patent US20250009631A1",
  "about": "“METHOD OF NAIL STRENGTHENING WITH A COMPLEX MICHAEL ADDITION TREATMENT COMPOSITION” (Wella Operations US, LLC, priority 2023, published 2025)",
  "origin": "cited, not measured here",
  "settings": "nail plate",
  "note": "Read-outs that look alike come from different tables or passages of the source.",
  "data": [
    {"smiles": "c1ccncc1", "note": "[pyridine]", "values": [
      {"measurement": "permeability coefficient", "setting": "pH 2", "result": "at least some permeation"},
      {"measurement": "permeability coefficient", "setting": "pH 7.4", "result": "high permeation coefficient"}
    ]}
  ]
}
